Here are results for 35 compounds from patent US20050197350A1, “Novel quinoline, tetrahydroquinazoline, and pyrimidine derivatives and methods of treatment related to the use thereof” (TAISHO PHARMACEUTICAL CO., LTD., priority 2003, published 2005).

The assay deals with MCH receptors. Put plainly: MCH receptor activity class (method not given). The following applies: class by percent of control at 10^-7 M or IC50.

In the case of `CN(C)c1ccnc(N[C@H]2CC[C@@H](NC(=O)c3cn(Cc4ccccc4)c4ccccc34)CC2)n1` [compound 830, 1-benzyl-N-(cis-4-{[4-(dimethylamino)pyrimidin-2-yl]amino}cyclohexyl)-1H-indole-3-carboxamide], the class was 2 (Class 2: The value of percent of control at 10^−7 M was from 40% to 60% or the value of IC′50 was from 50 nM to 200 nM.).

Turning to `CC(=O)c1cccc(C(=O)N[C@H]2CC[C@@H](Nc3nccc(N(C)C)n3)CC2)c1` [compound 831], the class was 2 (Class 2: The value of percent of control at 10^−7 M was from 40% to 60% or the value of IC′50 was from 50 nM to 200 nM.).

As to `CN(C)c1ccnc(N[C@H]2CC[C@@H](NC(=O)C3CCCC[C@H]3C(=O)c3ccccc3)CC2)n1` (some centres unmarked) [compound 832], the class is recorded as 3 (Class 3 The value of percent of control at 10^−7 M was more than 60% or the value of IC50 was more than 200 nM.).

For `CN(C)c1ccnc(N[C@H]2CC[C@@H](NC(=O)c3ccc(Br)o3)CC2)n1` [compound 833, 5-bromo-N-(cis-4-{[4-(dimethylamino)pyrimidin-2-yl]amino}cyclohexyl)-2-furamide], the class is given as 1 (Class 1: The value of percent of control at 10^−7 M was less than 40% or the value of IC50 was less than 50 nM.).

Regarding `CN(C)c1ccnc(N[C@H]2CC[C@@H](NC(=O)CCC3CCCCC3)CC2)n1` [compound 834], the class is 3 (Class 3 The value of percent of control at 10^−7 M was more than 60% or the value of IC50 was more than 200 nM.).

For the compound `Cc1ccnc(SCC(=O)N[C@H]2CC[C@@H](Nc3nccc(N(C)C)n3)CC2)n1` [compound 835], the class is 3 (Class 3 The value of percent of control at 10^−7 M was more than 60% or the value of IC50 was more than 200 nM.).

`CN(C)c1ccnc(N[C@H]2CC[C@@H](NC(=O)c3ccc(-c4ccc(Cl)cc4)o3)CC2)n1` [compound 836]: the class is recorded as 1 (Class 1: The value of percent of control at 10^−7 M was less than 40% or the value of IC50 was less than 50 nM.).

As for `CN(C)c1ccnc(N[C@H]2CC[C@@H](NC(=O)CCc3ccc(Cl)c(Cl)c3)CC2)n1` [compound 837], the class was 3 (Class 3 The value of percent of control at 10^−7 M was more than 60% or the value of IC50 was more than 200 nM.).

With `CN(C)c1ccnc(N[C@H]2CC[C@@H](NC(=O)Cc3ccc(Cl)c(Cl)c3)CC2)n1` [compound 838], the class was 3 (Class 3 The value of percent of control at 10^−7 M was more than 60% or the value of IC50 was more than 200 nM.).

Regarding `COc1cc(CC(=O)N[C@H]2CC[C@@H](Nc3nccc(N(C)C)n3)CC2)cc(OC)c1O` [compound 839], the class is reported as 3 (Class 3 The value of percent of control at 10^−7 M was more than 60% or the value of IC50 was more than 200 nM.).

Turning to `COc1cc(CC(=O)N[C@H]2CC[C@@H](Nc3nccc(N(C)C)n3)CC2)cc(OC)c1` [compound 841], the class is given as 3 (Class 3 The value of percent of control at 10^−7 M was more than 60% or the value of IC50 was more than 200 nM.).

As for `CN(C)c1ccnc(N[C@H]2CC[C@@H](NC(=O)Cc3cc(C(C)(C)C)c(O)c(C(C)(C)C)c3)CC2)n1` [compound 842], the class was 1 (Class 1: The value of percent of control at 10^−7 M was less than 40% or the value of IC50 was less than 50 nM.).

Consider `CN(C)c1cccc(C(=O)N[C@H]2CC[C@@H](Nc3nccc(N(C)C)n3)CC2)c1` [compound 844], for which the class was 2 (Class 2: The value of percent of control at 10^−7 M was from 40% to 60% or the value of IC′50 was from 50 nM to 200 nM.).

`CN(C)c1ccnc(N[C@H]2CC[C@@H](NC(=O)c3cc(Br)c(Br)o3)CC2)n1` [compound 845]: the class is 1 (Class 1: The value of percent of control at 10^−7 M was less than 40% or the value of IC50 was less than 50 nM.).

In the case of `CN(C)c1ccnc(N[C@H]2CC[C@@H](NC(=O)CCC(=O)c3ccc(F)cc3)CC2)n1` [compound 846], the class is reported as 3 (Class 3 The value of percent of control at 10^−7 M was more than 60% or the value of IC50 was more than 200 nM.).

`CN(C)c1ccnc(N[C@H]2CC[C@@H](NC(=O)[C@H](Cc3cn(Cc4ccccc4)cn3)NC(=O)OC(C)(C)C)CC2)n1` [compound 848]: the class is on record as 3 (Class 3 The value of percent of control at 10^−7 M was more than 60% or the value of IC50 was more than 200 nM.).

Consider `CN(C)c1ccnc(N[C@H]2CC[C@@H](NC(=O)Cc3c[nH]c4ccccc34)CC2)n1` [compound 850], for which the class is given as 2 (Class 2: The value of percent of control at 10^−7 M was from 40% to 60% or the value of IC′50 was from 50 nM to 200 nM.).

Regarding `Cc1sc(-c2ccccc2)nc1CC(=O)N[C@H]1CC[C@@H](Nc2nccc(N(C)C)n2)CC1` [compound 851, N-(cis-4-{[4-(dimethylamino)pyrimidin-2-yl]amino}cyclohexyl)-2-(5-methyl-2-phenyl-1,3-thiazol-4-yl)acetamide], the class is 2 (Class 2: The value of percent of control at 10^−7 M was from 40% to 60% or the value of IC′50 was from 50 nM to 200 nM.).

For the compound `COc1ccc(CSC2(CC(=O)N[C@H]3CC[C@@H](Nc4nccc(N(C)C)n4)CC3)CCCCC2)cc1` [compound 853], the class was 3 (Class 3 The value of percent of control at 10^−7 M was more than 60% or the value of IC50 was more than 200 nM.).

As to `COc1ccc2c(CC(=O)N[C@H]3CC[C@@H](Nc4nccc(N(C)C)n4)CC3)cc(=O)oc2c1` [compound 854], the class is recorded as 3 (Class 3 The value of percent of control at 10^−7 M was more than 60% or the value of IC50 was more than 200 nM.).

On to `Cc1cc(C)c(NC(=O)Nc2ccc(OC(F)(F)F)cc2)c(C(=O)N[C@H]2CC[C@@H](Nc3nccc(N(C)C)n3)CC2)c1` [compound 857], for which the class was 3 (Class 3 The value of percent of control at 10^−7 M was more than 60% or the value of IC50 was more than 200 nM.).

For the compound `CN(C)c1ccnc(N[C@H]2CC[C@@H](NC(=O)c3cc(Cl)cc(Cl)c3NC(=O)C#Cc3ccccc3)CC2)n1` [compound 858], the class is on record as 2 (Class 2: The value of percent of control at 10^−7 M was from 40% to 60% or the value of IC′50 was from 50 nM to 200 nM.).

For `CN(C)c1ccnc(N[C@H]2CC[C@@H](NC(=O)c3cccc(-n4c(-c5ccc(Br)cc5)cc5c4CC(C)(C)CC5=O)c3)CC2)n1` [compound 859], the class is reported as 3 (Class 3 The value of percent of control at 10^−7 M was more than 60% or the value of IC50 was more than 200 nM.).

As to `Cc1c(C(=O)N[C@H]2CC[C@@H](Nc3nccc(N(C)C)n3)CC2)cc(-c2ccccc2)n1CCCN1CCOCC1` [compound 863, N-(cis-4-{[4-(dimethylamino)pyrimidin-2-yl]amino}cyclohexyl)-2-methyl-1-(3-morpholin-4-ylpropyl)-5-phenyl-1H-pyrrole-3-carboxamide], the class is recorded as 2 (Class 2: The value of percent of control at 10^−7 M was from 40% to 60% or the value of IC′50 was from 50 nM to 200 nM.).

As to `CN(C)c1ccnc(N[C@H]2CC[C@@H](NC(=O)CCCc3ccc([N+](=O)[O-])cc3)CC2)n1` [compound 864, N-(cis-4-{[4-(dimethylamino)pyrimidin-2-yl]amino}cyclohexyl)-4-(4-nitrophenyl)butanamide], the class is reported as 2 (Class 2: The value of percent of control at 10^−7 M was from 40% to 60% or the value of IC′50 was from 50 nM to 200 nM.).

As for `CN(C)c1ccnc(N[C@H]2CC[C@@H](NC(=O)/C=C/c3ccccc3[N+](=O)[O-])CC2)n1` [compound 866], the class is given as 3 (Class 3 The value of percent of control at 10^−7 M was more than 60% or the value of IC50 was more than 200 nM.).

In the case of `CN(C)c1ccnc(N[C@H]2CC[C@@H](NC(=O)Cc3cccc(Oc4ccccc4)c3)CC2)n1` [compound 867], the class is reported as 3 (Class 3 The value of percent of control at 10^−7 M was more than 60% or the value of IC50 was more than 200 nM.).

Consider `CN(C)c1ccnc(N[C@H]2CC[C@@H](NC(=O)Cc3ccc(Oc4ccccc4)cc3)CC2)n1` [compound 868], for which the class is listed as 3 (Class 3 The value of percent of control at 10^−7 M was more than 60% or the value of IC50 was more than 200 nM.).

Regarding `CN(C)c1ccnc(N[C@H]2CC[C@@H](NC(=O)Cc3c(-c4ccccc4)[nH]c4ccccc34)CC2)n1` [compound 869, N-(cis-4-{[4-(dimethylamino)pyrimidin-2-yl]amino}cyclohexyl)-2-(2-phenyl-1H-indol-3-yl)acetamide], the class is recorded as 1 (Class 1: The value of percent of control at 10^−7 M was less than 40% or the value of IC50 was less than 50 nM.).

With `CN(C)c1ccnc(N[C@H]2CC[C@@H](NC(=O)c3cccc(Oc4ccccc4)c3)CC2)n1` [compound 871], the class is 2 (Class 2: The value of percent of control at 10^−7 M was from 40% to 60% or the value of IC′50 was from 50 nM to 200 nM.).

As for `CN(C)c1ccnc(N[C@H]2CC[C@@H](NC(=O)c3ccccc3CCc3ccccc3)CC2)n1` [compound 872], the class was 3 (Class 3 The value of percent of control at 10^−7 M was more than 60% or the value of IC50 was more than 200 nM.).

With `CN(C)c1ccnc(N[C@H]2CC[C@@H](NC(=O)c3cccc(C(=O)c4ccccc4)c3)CC2)n1` [compound 873], the class is 2 (Class 2: The value of percent of control at 10^−7 M was from 40% to 60% or the value of IC′50 was from 50 nM to 200 nM.).

Take `CCSC(C(=O)N[C@H]1CC[C@@H](Nc2nccc(N(C)C)n2)CC1)(c1ccccc1)c1ccccc1` [compound 874, N-(cis-4-{[4-(dimethylamino)pyrimidin-2-yl]amino}cyclohexyl)-2-(ethylthio)-2,2-diphenylacetamide]: the class is listed as 1 (Class 1: The value of percent of control at 10^−7 M was less than 40% or the value of IC50 was less than 50 nM.).

With `CN(C)c1ccnc(N[C@H]2CC[C@@H](NC(=O)c3ccccc3Sc3ccccc3C#N)CC2)n1` [compound 875], the class is recorded as 3 (Class 3 The value of percent of control at 10^−7 M was more than 60% or the value of IC50 was more than 200 nM.).

On to `COc1cc(CC(=O)N[C@H]2CC[C@@H](Nc3nccc(N(C)C)n3)CC2)ccc1OCc1ccccc1` [compound 876], for which the class is 3 (Class 3 The value of percent of control at 10^−7 M was more than 60% or the value of IC50 was more than 200 nM.).
